Biological target: T1, human recombinant HDAC6 (Homo sapiens, UniProt Q9UBN7)
T1 construct: purchased Calbiochem 382180
T1 sequence (Q9UBN7 1-1215): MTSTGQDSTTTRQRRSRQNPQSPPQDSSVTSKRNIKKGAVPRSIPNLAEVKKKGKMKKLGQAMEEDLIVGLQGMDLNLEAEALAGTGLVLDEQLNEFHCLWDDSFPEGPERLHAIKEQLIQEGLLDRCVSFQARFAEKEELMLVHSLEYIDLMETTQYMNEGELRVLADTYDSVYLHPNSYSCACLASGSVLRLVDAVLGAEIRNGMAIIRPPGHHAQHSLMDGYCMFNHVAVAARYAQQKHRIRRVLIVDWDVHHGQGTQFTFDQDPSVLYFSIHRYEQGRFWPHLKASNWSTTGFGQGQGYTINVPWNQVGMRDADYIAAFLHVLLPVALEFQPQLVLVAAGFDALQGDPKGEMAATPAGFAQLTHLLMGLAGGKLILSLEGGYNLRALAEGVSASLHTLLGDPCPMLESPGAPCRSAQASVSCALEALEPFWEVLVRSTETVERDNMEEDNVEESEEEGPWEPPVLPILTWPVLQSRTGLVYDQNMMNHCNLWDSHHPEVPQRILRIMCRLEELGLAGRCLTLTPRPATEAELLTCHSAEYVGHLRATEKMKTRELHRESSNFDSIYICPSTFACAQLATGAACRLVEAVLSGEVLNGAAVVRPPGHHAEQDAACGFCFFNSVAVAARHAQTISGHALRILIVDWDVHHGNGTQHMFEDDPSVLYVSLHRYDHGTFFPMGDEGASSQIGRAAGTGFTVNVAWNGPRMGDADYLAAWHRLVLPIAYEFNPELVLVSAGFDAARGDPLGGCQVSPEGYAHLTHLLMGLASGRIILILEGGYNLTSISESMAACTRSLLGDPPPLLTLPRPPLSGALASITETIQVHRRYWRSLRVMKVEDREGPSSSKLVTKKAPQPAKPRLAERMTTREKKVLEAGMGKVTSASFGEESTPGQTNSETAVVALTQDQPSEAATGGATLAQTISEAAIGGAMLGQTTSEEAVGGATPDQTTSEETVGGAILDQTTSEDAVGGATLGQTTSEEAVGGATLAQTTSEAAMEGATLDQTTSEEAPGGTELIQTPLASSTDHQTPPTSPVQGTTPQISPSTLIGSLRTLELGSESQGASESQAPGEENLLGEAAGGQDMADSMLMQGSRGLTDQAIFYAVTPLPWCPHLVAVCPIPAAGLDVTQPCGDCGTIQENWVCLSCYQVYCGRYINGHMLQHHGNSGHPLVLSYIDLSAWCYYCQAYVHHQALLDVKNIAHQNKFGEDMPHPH
Test: HDAC6 enzyme activity inhibition assay (HDAC Fluorimetric Drug Discovery Kit)
Assay type: biochemical
Conditions: for HDAC6 selectivity (fold): HDAC6 over HDAC1; for IC50: human recombinant HDAC6, same protocol as HDAC1, read-out: HDAC6
Procedure, shortened: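 Human recombinant HDAC1 or HDAC6 (0.3 μg) reacted with 10 μM Fluor de Lys-SIRT1 substrate and 5-fold compound dilutions for 60 min at 30 °C. Developer II added for 30 min, fluorescence read at Ex 360/Em 460; IC50 calculated from the readings.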

HDAC6 selectivity (fold) | IC50 [nM] | Compound
144 | 70 | CCn1ncc2ccc(N(Cc3ccc(-c4nnc(C(F)F)o4)cc3F)C(=O)N3CCS(=O)(=O)CC3)cc21 [Compound 21811, N-(4-(5-(Difluoromethyl)-1,3,4-oxadiazol-2-yl)-2-fluorobenzyl)-N-(1-ethyl-1H-indazol-6-yl)thiomorpholine-4-carboxamide 1,1-dioxide]
1 | – | CC(C)(C)c1ccc(N(Cc2ccc(-c3nnc(C(F)F)o3)cc2)C(=O)N2CCS(=O)(=O)CC2)cc1 [Compound 21459, N-(4-(tert-butyl)phenyl)-N-(4-(5-(difluoromethyl)-1,3,4-oxadiazol-2-yl)benzyl)thiomorpholine-4-carboxamide 1,1-dioxide]
549 | 18 | O=C(N1CCOCC1)N(Cc1ccc(-c2nnc(C(F)F)o2)cn1)c1ccccc1 [Compound 21630, N-((5-(5-(difluoromethyl)-1,3,4-oxadiazol-2-yl)pyridin-2-yl)methyl)-N-phenylmorpholine-4-carboxamide]
422 | 24 | O=C(N1CCS(=O)(=O)CC1)N(Cc1ccc(-c2nnc(C(F)F)o2)cn1)c1ccccc1F [Compound 21625, N-((5-(5-(difluoromethyl)-1,3,4-oxadiazol-2-yl)pyridin-2-yl)methyl)-N-(2-fluorophenyl)thiomorpholine-4-carboxamide 1,1-dioxide]
500 | 20 | CN1CCN(C(=O)N(Cc2ccc(-c3nnc(C(F)F)o3)cn2)c2cccc(F)c2)CC1 [Compound 21599, N-((5-(5-(difluoromethyl)-1,3,4-oxadiazol-2-yl)pyridin-2-yl)methyl)-N-(3-fluorophenyl)-4-methylpiperazine-1-carboxamide]
22 | 457 | CN1CCN(c2cccc(N(Cc3ccc(-c4nnc(C(F)F)o4)cn3)C(=O)N3CCS(=O)(=O)CC3)c2)CC1 [Compound 21627, N-((5-(5-(difluoromethyl)-1,3,4-oxadiazol-2-yl)pyridin-2-yl)methyl)-N-(3-(4-methylpiperazin-1-yl)phenyl)thiomorpholine-4-carboxamide 1,1-dioxide]
137 | 73 | O=C(N1CCS(=O)(=O)CC1)N(Cc1ccc(-c2nnc(C(F)(F)F)o2)cc1)c1cccc(Cl)c1 [Compound 21395, N-(3-chlorophenyl)-N-(4-(5-(trifluoromethyl)-1,3,4-oxadiazol-2-yl)benzyl)thiomorpholine-4-carboxamide 1,1-dioxide]
645 | 16 | O=C(N1CCS(=O)(=O)CC1)N(Cc1ccc(-c2nnc(C(F)F)o2)cn1)c1cccc(Cl)c1 [Compound 21626, N-(3-chlorophenyl)-N-((5-(5-(difluoromethyl)-1,3,4-oxadiazol-2-yl)pyridin-2-yl)methyl)thiomorpholine-4-carboxamide 1,1-dioxide]

More lines, now with the values behind:

Compound | HDAC6 selectivity (fold) | IC50 [nM]
O=C(N1CCS(=O)(=O)CC1)N(Cc1ccc(-c2nnc(C(F)F)o2)cc1F)c1ccc(CN2CC(F)(F)C2)cc1 [Compound 21914, N-(4-((3,3-difluoroazetidin-1-yl)methyl)phenyl)-N-(4-(5-(difluoromethyl)-1,3,4-oxadiazol-2-yl)-2-fluorobenzyl)thiomorpholine-4-carboxamide 1,1-dioxide] | 63 | 158
CN1CCN(C(=O)N(Cc2ccc(-c3nnc(C(F)F)o3)cc2F)c2cccc(-c3ccoc3)c2)CC1 [Compound 21534, N-(4-(5-(difluoromethyl)-1,3,4-oxadiazol-2-yl)-2-fluorobenzyl)-N-(3-(furan-3-yl)phenyl)-4-methylpiperazine-1-carboxamide] | 175 | 57
CCC(=O)N1CCN(C(=O)N(Cc2ccc(-c3nnc(C(F)(F)F)o3)cc2)c2ccccc2)CC1 [Compound 21366, N-phenyl-4-propionyl-N-(4-(5-(trifluoromethyl)-1,3,4-oxadiazol-2-yl)benzyl)piperazine-1-carboxamide] | 79 | 126
O=C(N1CCOCC1)N(Cc1ccc(-c2nnc(C(F)F)o2)cc1F)c1nncs1 [Compound 21981, N-(4-(5-(difluoromethyl)-1,3,4-oxadiazol-2-yl)-2-fluorobenzyl)-N-(1,3,4-thiadiazol-2-yl) morpholine-4-carboxamide] | 13 | 758
CCN(CC)c1ccc(N(Cc2ccc(-c3nnc(C(F)(F)F)o3)cc2F)C(=O)N2CCS(=O)(=O)CC2)cc1 [Compound 21552, N-(4-(diethylamino)phenyl)-N-(2-fluoro-4-(5-(trifluoromethyl)-1,3,4-oxadiazol-2-yl)benzyl)thiomorpholine-4-carboxamide 1,1-dioxide] | 7 | 1520
COc1ccc(N(Cc2ccc(-c3nnc(C(F)F)o3)cc2F)C(=O)N2CCN(C3COC3)CC2)cc1 [Compound 21952, N-(4-(5-(Difluoromethyl)-1,3,4-oxadiazol-2-yl)-2-fluorobenzyl)-N-(4-methoxyphenyl)-4-(oxetan-3-yl)piperazine-1-carboxamide] | 58 | 172
O=C(NCCN1CCN(c2ccc(Cl)c(Cl)c2)CC1)N(Cc1ccc(-c2nnc(C(F)F)o2)cc1F)c1ccccc1 [Compound 22012, 3-(2-(4-(3,4-Dichlorophenyl)piperazin-1-yl)ethyl)-1-(4-(5-(difluoromethyl)-1,3,4-oxadiazol-2-yl)-2-fluorobenzyl)-1-phenylurea] | 10 | 1020
O=C(NCCN1CCN(C/C=C/c2ccccc2)CC1)N(Cc1ccc(-c2nnc(C(F)F)o2)cc1F)c1ccccc1 [Compound 22016, 3-(2-(4-Cinnamylpiperazin-1-yl)ethyl)-1-(4-(5-(difluoromethyl)-1,3,4-oxadiazol-2-yl)-2-fluorobenzyl)-1-phenylurea] | 42 | 237
O=C(N1CCOCC1)N(Cc1ccc(Cc2nnc(C(F)(F)F)o2)cc1)c1ccccc1 [Compound 21355, N-phenyl-N-(4-((5-(trifluoromethyl)-1,3,4-oxadiazol-2-yl)methyl)benzyl)morpholine-4-carboxamide] | 1 | 6910
O=C(N1CCS(=O)(=O)CC1)N(Cc1ccc(-c2nnc(C(F)(F)F)o2)cc1)c1ccccn1 [Compound 21409, N-(pyridin-2-yl)-N-(4-(5-(trifluoromethyl)-1,3,4-oxadiazol-2-yl)benzyl)thiomorpholine-4-carboxamide 1,1-dioxide] | 33 | 304
CN1CCN(Cc2ccc(N(Cc3ccc(-c4nnc(C(F)(F)F)o4)cc3F)C(=O)N3CCS(=O)(=O)CC3)cc2)CC1 [Compound 21515, N-(2-fluoro-4-(5-(trifluoromethyl)-1,3,4-oxadiazol-2-yl)benzyl)-N-(4-((4-methylpiperazin-1-yl)methyl)phenyl)thiomorpholine-4-carboxamide 1,1-dioxide] | 115 | 87
O=C(NCCN1CCN(c2ccc(F)cc2)CC1)N(Cc1ccc(-c2nnc(C(F)F)o2)cc1F)c1ccccc1 [Compound 22010, 1-(4-(5-(Difluoromethyl)-1,3,4-oxadiazol-2-yl)-2-fluorobenzyl)-3-(2-(4-(4-fluorophenyl)piperazin-1-yl)ethyl)-1-phenylurea] | 29 | 341
